This is an account of results in US4786644A, “1-aryl-3-quinolinecarboxamide” (Hoechst-Roussel Pharmaceuticals Inc., priority 1987, dated 1988).

Each structure is given as a SMILES string.

The subject of experiment [1] is adjuvant-induced polyarthritis syndrome. Briefly: adjuvant-induced polyarthritis syndrome in rats. The experiment is classed as in vivo, rat (male Charles River-Wistar Lewis). The settings on record: rat, p.o., daily for 21 days. As for the experimental part:
This activity was measured by a procedure similar to that described by C. M. Pearson and F. D. Wood, Arthritis and Rheumatism, 2, 440 (1959).
Groups of 10 male Charles River-Wistar Lewis rats weighing 150 to 175 g were individually housed and maintained on a regular rat chow diet. Water was given ad libitum. The adjuvant was prepared by suspending 75 mg of Mycobacterium butyricum (Difco Laboratories, Detroit, Mich.) in 10 ml of white paraffin oil with continuous stirring for 2 hours at room temperature prior to administration. Test compounds are prepared by suspending the drug in water, adding one drop of Tween 80 per 10 ml of suspension, and homogenizing. The adjuvant suspension (0.1 ml) was injected into the footpad of the left hind paw of the rat. Test compound suspensions were adminstered orally (10 ml/kg) the day before adjuvant suspension injection and the administration was continued daily for 21 days. One group of ten rats was used for the test drug. Standard, adjuvant-injected control and non-injected control groups were run along with the test drug. Control animals received vehicle (10 ml/kg). Injected and non-injected paw volumes were determined on the day the adjuvant suspension was given, and on subsequent days thereafter (usually days 5, 10, 18, and 21) by the method of C. A. Winter, et al., Proc. Soc. Exp. Biol. Med., 111, 544 (1962).
The percent inhibition of paw volume (injected and non-injected paw) were calculated by the following formula: [formula] The results of the adjuvant-induced polyarthritis syndrome test procedure for several of the compounds of this invention are provided in Table 2.

Experiment [2] deals with carrageenan-induced rat paw edema. Briefly: carrageenan-induced rat paw edema antiinflammatory assay. The settings on record: screening dose of 100 mg/kg, p.o. The experiment is classed as in vivo. On the technique in general: Carrageenan injected into the paw causes an acute inflammation.
Experiment [3] has as its system phenyl-p-quinone writhing. Briefly: phenyl-p-quinone writhing assay in mice (analgesic). The experiment is classed as in vivo, mouse (male, Charles River, CD-1). The settings on record: for Analgesic Activity, % Inhibition of Writhing: mouse, screening dose of 20 mg/kg, s.c. On the procedure: The procedure employed to determine analgetic utility is a modification of the phenyl-p-quinone writhing assay in mice, a standard assay for analgetic activity [Proc. Soc. Exptl. […] The solution is administered to the subject mice intraperitoneally at a dose of 10 ml per kg of body weight. A characteristic "writhe", an inward rotation of one or more feet with twisting and turning of the trunk, drawing in of the abdominal wall, lordosis and arching of the back, is produced.
A total of 28 male mice (Charles River, CD-1), weighing 18 to 30 grams, are employed for a time response. The subject animals receive food and water ad libitum. Test compounds are dissolved in distilled water, or suspended in distilled water containing one drop of a suitable surfactant, such as Tween-80.
Four groups of five animals (20 animals) are given the test compound subcutaneously (s.c.) or orally (p.o.) at 15, 30, 45 and 60 minutes prior to administration of the phenyl-p-quinone. A control group (2 animals per group) receive an equal volume of the vehicle. After the administration of the phenyl-p-quinone, the mice are placed separately in one liter beakers, and after five minutes, are observed for ten minutes. The number of writhes for each animal is recorded. The following formula is used to compute the percent inhibition: [formula]
A dose range determination is run in the same manner as the time response except 10 animals per group are tested at the peak time of test drug activity. Fifty animals, 4 test drug groups, and a vehicle control are employed. Animals are dosed and tested in a randomized manner. The time period with the greatest percent of inhibition is considered the peak time.
(Writhing tests count abdominal constrictions after an irritant is injected.)

A word on the ED50: it is the midpoint of the dose-response relation. As to `CC(=O)Oc1ccccc1C(=O)O` [Aspirin, reference compound], in experiment [1] (screening dose of 50 mg/kg), the “percent inhibition of paw volume, Adjuvant-Treated Paw” value is listed as -22% and the “percent inhibition of paw volume, Non-Injected Paw” value is recorded as -33%. The “Inhibition of Carrageenan-Induced Rat Paw Edema, Percent Inhibition” value in experiment [2] was -29%. Besides, in experiment [3] (Mus musculus, sc, read-out: ED50 (dose effecting 50% inhibition of writhing)), the median effective dose (ED50) is 32.8 mg/kg.

Regarding `O=C(Nc1ccccn1)c1nc(-c2ccccc2)c2ccccc2c1O` [Example 1, 4-Hydroxy-1-phenyl-N-(2-pyridyl)-3-isoquinolinecarboxamide], in experiment [1] (screening dose of 45 mg/kg), the “percent inhibition of paw volume, Adjuvant-Treated Paw” value was “+1%” and the “percent inhibition of paw volume, Non-Injected Paw” value is -17%.

`O=C(Nc1cccc(Cl)c1)c1nc(-c2ccccc2)c2ccccc2c1O` [Example 3, N-(3-Chlorophenyl)-4-hydroxy-1-phenyl-3-isoquinolinecarboxamide]: the “Analgesic Activity, % Inhibition of Writhing” value in experiment [3] was 51%.

With `O=C(Nc1ccc(Cl)cn1)c1nc(-c2ccccc2)c2ccccc2c1O` [Example 4, N-(5-Chloro-2-pyridyl)-4-hydroxy-1-phenyl-3-isoquinolinecarboxamide], in experiment [1] (screening dose of 50 mg/kg), the “percent inhibition of paw volume, Adjuvant-Treated Paw” value was -22% and the “percent inhibition of paw volume, Non-Injected Paw” value is -38%. In addition, in experiment [3], the “Analgesic Activity, % Inhibition of Writhing” value is 57%.

In the case of `O=C(Nc1ccccc1)C1=C(O)c2ccccc2N(c2ccccc2)C1` [Example 8, 1,2-Dihydro-4-hydroxy-1-phenyl-N-phenyl-3-quinolinecarboxamide], in experiment [1] (screening dose of 50 mg/kg), the “percent inhibition of paw volume, Adjuvant-Treated Paw” value was -5% and the “percent inhibition of paw volume, Non-Injected Paw” value was -26%. For the same compound, the “Inhibition of Carrageenan-Induced Rat Paw Edema, Percent Inhibition” value in experiment [2] is listed as -28%.

As for `O=C(Nc1cnccn1)C1=C(O)c2ccccc2N(c2ccccc2)C1` [Example 9, 1,2-Dihydro-4-hydroxy-1-phenyl-N-(2-pyrazinyl)-3-quinolinecarboxamide], in experiment [2], the “Inhibition of Carrageenan-Induced Rat Paw Edema, Percent Inhibition” value was -24%. Moreover, the “Analgesic Activity, % Inhibition of Writhing” value in experiment [3] amounted to 31%.

With `Cc1csc(NC(=O)C2=C(O)c3ccccc3N(c3ccccc3)C2)n1` [Example 10, 1,2-Dihydro-4-hydroxy-N-(4-methyl-2-thiazolyl)-1-phenyl-3-quinolinecarboxamide], the “Analgesic Activity, % Inhibition of Writhing” value in experiment [3] is 36%.

Consider `O=C(Nc1ccc(Br)cn1)C1=C(O)c2ccccc2N(c2ccccc2)C1` [Example 12, N-(5-Bromo-2-pyridyl)-1,2-dihydro-4-hydroxy-1-phenyl-3-quinolinecarboxamide], for which, in experiment [1] (screening dose of 50 mg/kg), the “percent inhibition of paw volume, Adjuvant-Treated Paw” value is listed as -2% and the “percent inhibition of paw volume, Non-Injected Paw” value is listed as -22%. Also, the “Analgesic Activity, % Inhibition of Writhing” value in experiment [3] worked out at 39%.

As to `O=C(Nc1ccccn1)c1cn(-c2ccccc2)c2ccccc2c1=O` [Example 13, 1,4-Dihydro-4-oxo-1-phenyl-N-(2-pyridyl)-3-quinolinecarboxamide], in experiment [2], the “Inhibition of Carrageenan-Induced Rat Paw Edema, Percent Inhibition” value is given as -25%.

Turning to `O=C(Nc1cnccn1)c1cn(-c2ccccc2)c2ccccc2c1=O` [Example 17, 1,4-Dihydro-4-oxo-1-phenyl-N-(2-pyrazinyl)-3-quinolinecarboxamide], in experiment [1] (screening dose of 50 mg/kg), the “percent inhibition of paw volume, Adjuvant-Treated Paw” value was -7% and the “percent inhibition of paw volume, Non-Injected Paw” value is recorded as -23%. For the same compound, the “Inhibition of Carrageenan-Induced Rat Paw Edema, Percent Inhibition” value in experiment [2] was -23%.

For the compound `Cc1csc(NC(=O)c2cn(-c3ccccc3)c3ccccc3c2=O)n1` [Example 18, 1,4-Dihydro-N-(4-methyl-2-thiazolyl)-4-oxo-1-phenyl-3-quinolinecarboxamide], in experiment [1] (screening dose of 50 mg/kg), the “percent inhibition of paw volume, Adjuvant-Treated Paw” value is listed as -12% and the “percent inhibition of paw volume, Non-Injected Paw” value is -26%. Also, the “Inhibition of Carrageenan-Induced Rat Paw Edema, Percent Inhibition” value in experiment [2] is reported as -28%.

As for `Cc1cccc(NC(=O)c2cn(-c3ccccc3)c3ccccc3c2=O)n1` [Example 19, 1,4-Dihydro-N-(6-methyl-2-pyridyl)-4-oxo-1-phenyl-3-quinolinecarboxamide], in experiment [3], the “Analgesic Activity, % Inhibition of Writhing” value was 35%.

As for `Cc1ccc(NC(=O)c2cn(-c3ccccc3)c3ccccc3c2=O)nc1` [Example 20, 1,4-Dihydro-N-(5-methyl-2-pyridyl)-4-oxo-1-phenyl-3-quinolinecarboxamide], in experiment [3], the “Analgesic Activity, % Inhibition of Writhing” value came to 30%.
